Assay results as given in PMC6482291, “Anticonvulsant Activity of Pterostilbene in Zebrafish and Mouse Acute Seizure Tests” (Neurochemical Research, 2019).
Read-outs that look alike come from different tables or passages of the source.

Assays:
[1] = parameters: method as in PMID 25047917; details: after oral administration; cited from earlier work
[2] = system: maximal electroshock seizures in mice; assay: Maximal electroshock seizure threshold (MEST) test; format: in vivo; details: for CS50 (seizure threshold): 30 min before test, 95% confidence limits in brackets
Description: Seizures in the MEST test were evoked by applying a sine-wave alternating current (maximal output voltage 500 V, 50 Hz for 0.2 s) generated by constant current stimulator (Rodent Shocker, Type 221, Hugo Sachs Elektronik, Freiburg, Germany). The stimulation was delivered by saline-socked transcorneal electrodes. Before the stimulation 1% solution of tetracaine hydrochloride was applied into animals’ eyes for local anesthesia. During the stimulation animals were restrained manually and immediately after the stimulation they were placed in the Plexiglas box for observation. The endpoint evaluated in the test was the maximal electroconvulsion which was defined as extension of the hindlimbs above a 90° angle to the torso of animal.
The threshold for maximal electroshock was determined according to the up-and-down method described by Kimball et al.. The mice in the experimental group were subjected to the stimuli with different current intensities (range of 8–30 mA) which changes in 0.06-log steps. If stimulated mouse respond with seizures, the next mouse in the group was stimulated with current of intensity 0.06-log step lower than the previous one. […] Groups of 20 stimulated animals were used to calculate the threshold current strength (CS50 in mA; the current strength which induces tonic hindlimb extension in 50% of the tested animals) with SEM.
CS50 values were compared with one-way ANOVA followed by the Tukey’s multiple comparison test.

[3] = system: 6 Hz-induced psychomotor seizures in mice; assay: 6 Hz psychomotor seizure threshold test; format: in vivo; details: 30 min before test, 95% confidence limits in brackets
Description: Psychomotor (limbic) seizures were induced by transcorneal stimulation (6 Hz, 0.2 ms rectangular pulse, 3 s duration) generated by a Grass S48 stimulator coupled with a constant current unit CCU1 (both from Grass Technologies, West Warwick, RI, USA). Before stimulation a drop of ocular anesthetic, 1% tetracaine hydrochloride solution, was applied into the animals’ corneas. The electrodes were soaked in saline to ensure the good electrical contact. During the stimulation animals were restrained manually and immediately after the stimulation were placed in a Plexiglas box for observation of presence or absence of the psychomotor seizures. These seizures were characterized by immobilization or stun, often associated with rearing, forelimb clonus, twitching of vibrissae and elevated tail (Straub-tail), lasting at least 10 s from the stimulation. Lack of the above symptoms or their cessation within 10 s from the stimulation was considered as absence of seizure activity.
In the present study two 6 Hz-induced psychomotor seizure tests were performed: (1) the 6 Hz psychomotor seizure threshold test which employed stimulation at varied current intensities, and (2) the 6 Hz psychomotor seizure test with supramaximal stimulation at 32 mA and 44 mA.
In the 6 Hz psychomotor seizures threshold test, threshold current intensity (CS50 in mA) was estimated in groups of 20 animals according to the above mentioned up-and-down method.

zebrafish larvae = assay: Toxicological assessment (maximum tolerated concentration) in zebrafish larvae; format: in vivo, Danio rerio; details: 4 dpf larvae, scored after 2 and 18 h of exposure; highest concentration without death or signs of toxicity
Description: Maximum tolerated concentration (MTC) was evaluated prior to further experiments. Briefly, 4 dpf zebrafish larvae (n = 12/group) were incubated with a range of PTE doses at 28.5 °C, for 18 h. The following parameters were scored after 2 and 18 h of exposure: touch response, posture, edema, morphology, signs of necrosis, swim bladder and heartbeat.

[4] = Determination of PTE in mouse serum and brain tissue and pharmacokinetic analysis; format: in vivo; details: mice, 50 mg/kg ip; for Kp: brain/serum, ip, 50 mg/kg; for concentration at 15 min / concentration at 30 min / concentration at 60 min / concentration at 120 min / concentration at 240 min: mean ± SEM; for MRT: read-out: MRT (mean residence time); for half-life: read-out: t0.5 λz (terminal half-life) (converted); for Tmax: read-out: time of peak concentration following dosing (converted); for k el: read-out: λz (terminal elimination rate constant) (converted)
Description: In order to isolate PTE from biological samples, brains were homogenized in distilled water (1:4, w/v) with a tissue homogenizer TH220 (Omni International, Inc., Warrenton, VA, USA). Aliquots of 0.2–0.3 ml of serum or 0.5–1 ml of brain homogenate were spiked with 10 µl of internal standard (IS) solution containing clonazepam at concentration of 10 µg/ml and vortexed (Reax top, Heidolph, Germany) for 10 s. Both serum samples and brain homogenates were extracted with 3 ml of a mixture of ethyl acetate:hexane (30:70, v/v) for 20 min on a shaker (VXR Vibrax, IKA, Germany). After centrifugation (Universal 32, Hettich, Germany) at 3000 rpm for 15 min, the organic layers ware transferred to new tubes and evaporated to dryness at 37 °C under a gentle stream of nitrogen. The residues were dissolved in 100 µl of methanol and aliquots of 10–50 µl of the solution were injected into the HPLC system. The analysis was performed on a 250 × 4.6 mm LiChrospher®100 RP-18 column with a particle size of 5 µm (Merck, Darmstadt, Germany) protected with a guard column (4 × 4 mm) with the same packing material. The mobile phase was composed of deionized water and acetonitrile mixed at a ratio of 50:50 (v/v) and pumped at a flow rate of 1 ml/min. The column temperature was maintained at 21 °C. The HPLC system (Merck-Hitachi, Darmstadt, Germany) consisted of an L-7100 isocratic pump, an L-7200 autosampler, and a UV variable-wavelength K-2600 detector (Knauer, Berlin, Germany) operating at 321 nm. D-7000 HSM software was used for data acquisition and processing. In these conditions, the retention times of IS and PTE were approximately 5.3 and 12.8 min. The calibration curve constructed by plotting the ratio of the peak area of PTE to IS vs PTE concentrations was linear in the tested concentration ranges. The limit of quantification of the analytical method was 5 ng/ml (or ng/g tissue). […] The extraction efficiencies of PTE and IS were higher than 90%.
Serum and total brain concentrations of PTE were determined in groups consisted of 8 animals. Pharmacokinetic parameters were calculated using non-compartmental analysis in Phoenix WinNonlin v. 7.0 (Pharsight Corporation, a Certara Company, Princeton, NJ, USA).

[5] = system: GABA-induced chloride currents; parameters: method as in PMID 24462176; details: cited from earlier work
[6] = mouse, brain, read-out: Concentration of PTE in brain tissue
[7] = mouse, serum, read-out: Concentration of PTE in serum

Structure (SMILES): COc1cc(/C=C/c2ccc(O)cc2)cc(OC)c1 [PTE, trans-3,5-dimethoxy-4′-hydroxy-trans-stilbene]
- brain concentration of PTE relative to pterostilbene-4’sulphate (main metabolite) [1]: nearly fivefold higher
- time of peak in brain tissue [1]: 2 h
- CS50 (seizure threshold) ([2]; PTE 100 mg/kg ip): 11.40 (10.93–11.87) mA
- CS50 (seizure threshold) ([2]; PTE 200 mg/kg ip): 16.22 (14.80–17.78) mA
- increase of seizure threshold vs negative control ([2]; PTE 200 mg/kg ip, p < 0.001): over 70%
- seizure threshold higher than in VPA-treated group (150 mg/kg) ([2]; PTE 200 mg/kg ip, p < 0.05): 15%
- CS50 (psychomotor seizure threshold) ([3]; PTE 100 mg/kg ip, p < 0.01): 15.56 (14.18–17.08) mA
- CS50 (psychomotor seizure threshold) ([3]; PTE 200 mg/kg ip, p < 0.001): 19.28 (17.15–21.66) mA
- Maximum tolerated concentration (MTC) (zebrafish larvae): 10 µM
- AUC0–24 ([4]; brain): 11.64 µg·h/g
- Kp ([4]; mouse, read-out: brain-to-serum AUC ratio): 5.15
- Kp ([4]; mouse, read-out: brain-to-serum Cmax ratio): 6
- concentration at 15 min [4, 6]: 13100 ± 1820 ng/g
- concentration at 30 min [4, 6]: 9920 ± 1100 ng/g
- concentration at 60 min [4, 6]: 3500 ± 440 ng/g
- concentration at 120 min [4, 6]: 820 ± 140 ng/g
- concentration at 240 min [4, 6]: 180 ± 60 ng/g
- concentration at 15 min [4, 7]: 1760 ± 230 ng/mL
- concentration at 30 min [4, 7]: 1080 ± 160 ng/mL
- concentration at 60 min [4, 7]: 550 ± 70 ng/mL
- concentration at 120 min [4, 7]: 210 ± 30 ng/mL
- concentration at 240 min [4, 7]: 100 ± 60 ng/mL
- Cmax ([4]; mouse, brain): 13100 ng/g
- MRT ([4]; mouse, brain): 1.09 h
- half-life ([4]; mouse, brain): 1.82 h
- Tmax ([4]; mouse, brain): 0.25 h
- k el ([4]; mouse, brain): 0.000106 s⁻¹
- Cmax ([4]; mouse, serum): 2190 ng/mL
- AUC(0-t) ([4]; mouse, serum, read-out: AUC0–24): 2260 ng·h/mL
- MRT ([4]; mouse, serum): 2.62 h
- half-life ([4]; mouse, serum): 2.64 h
- Tmax ([4]; mouse, serum): 0.25 h
- k el ([4]; mouse, serum): 7.22e-05 s⁻¹
- effect on GABA-induced chloride currents [5]: enhances
